One experiment has as its target T1, CCR5 (Homo sapiens, UniProt P51681).
T1 construct: After 21 to 34 days culture, the membranes were prepared from the cells; endogenous in cells; host or cells: Allo-T cells (allo-reactive T cell line from human PBMCs), membrane preparation
Description: Displacement of radio-labelled CCR5 antagonist from Allo-T cell membranes (inhibition of MIP-1β binding). The settings on record: membranes of human allo-reactive T cells; 2 nM [3H] CCR5 antagonist; 2 hours at room temperature; read-out: IC50, concentration which displaced 50% of bound radio-labelled CCR5 antagonist. The method, then:
The ability of the compound of the present invention to inhibit the binding of MIP-1β (CCL-4) was measured:
An allo-reactive T cell line was generated by exposure of human peripheral blood mononuclear cells (PBMCs) to L-DR4/B7 fibroblasts (immobilised with glutaraldehyde fixation and irradiation) and subsequent expansion with anti-CD3 and IL-2 for 14 days. The resultant Allo-T cells were frozen. When required, the cells were grown and re-challenged with irradiated HLA-DR4+ve PBMCs and expanded with anti-CD3 and IL-2. After 21 to 34 days culture, the membranes were prepared from the cells. These membranes were incubated in 96-well plates with 2 nM of the radio-labelled CCR5 antagonist [^3H]1-{(3R)-3-(3,5-difluorophenyl)-3-[4-(methylsulfonyl)phenyl]propyl}-4-(2-{[4-(methylsulfonyl)phenyl]sulfonyl}ethyl)piperidine and various concentrations of the compound of the invention for 2 hours at room temperature. The plates were then harvested onto GF/B filter plates (which had been pre-soaked soaked in 0.3% PEI containing 0.2% BSA for 10 min at 4° C.) using a Packard Unifilter harvester using 10 wash steps. The amount of [^3H]1-{(3R)-3-(3,5-difluorophenyl)-3-[4-(methylsulfonyl)phenyl]propyl}-4-(2-{[4-(methylsulfonyl)phenyl]sulfonyl}ethyl)piperidine retained on the filter plates was determined by scintillation counting. […]

The test system of experiment [1] is T-cells, chemotaxis in response to MIP-1β (CCL-4). Description: Inhibition of chemotaxis of T-cells in response to MIP-1β (CCL-4). Type of experiment: cell-based. The settings on record: human allo-reactive T cell line; 1 nM MIP-1β; 1 hour at 37° C.; read-out: IC50, concentration which inhibited 50% of the chemotactic response. The procedure: The ability of the compound of the present invention to inhibit the chemotaxis of T-cells in response to MIP-1β (CCL-4) was measured:
An allo-reactive T cell line was generated by exposure of human peripheral blood mononuclear cells (PBMCs) to L-DR4/B7 fibroblasts (immobilised with glutaraldehyde fixation and irradiation) and subsequent expansion with IL-2 and anti-CD3. When required, the cells were grown and re-challenged with irradiated HLA-DR4+ve PBMCs and expanded with anti-CD3 and IL-2. The cells were used between day 21 and 34. 1 nM of MIP-1β plus varying concentrations of the CCR5 antagonist [^3H]1-{(3R)-3-(3,5-difluorophenyl)-3-[4-(methylsulfonyl)phenyl]propyl}-4-(2-{[4-(methylsulfonyl)phenyl]sulfonyl}ethyl)piperidine were placed in assay buffer in the bottom of a 96-well Neuroprobe Chemo TX chemotaxis plate and cells that had been loaded with a fluorescent dye and pre-incubated with varying concentration of the CCR5 antagonist were pipetted onto the surface of a 5 micron pore size membrane according to the manufacturers specifications. After 1 hour of incubation with the compound of the invention at 37° C., the unmigrated cells were washed off the surface of the plate with PBS and the […] by reading on a 96-well fluorescent plate reader. […]

T1 sequence (P51681 whole entry): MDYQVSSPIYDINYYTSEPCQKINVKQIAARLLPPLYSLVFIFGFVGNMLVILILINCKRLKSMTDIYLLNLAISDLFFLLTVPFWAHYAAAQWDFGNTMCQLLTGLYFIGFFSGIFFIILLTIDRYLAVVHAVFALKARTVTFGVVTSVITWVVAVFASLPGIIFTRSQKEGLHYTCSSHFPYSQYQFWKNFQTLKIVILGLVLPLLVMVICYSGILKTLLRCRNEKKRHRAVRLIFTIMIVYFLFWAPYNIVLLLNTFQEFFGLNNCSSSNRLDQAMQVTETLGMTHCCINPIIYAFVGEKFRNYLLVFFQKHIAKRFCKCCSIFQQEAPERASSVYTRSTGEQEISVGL

On to `Cc1nnc(C(F)(F)F)n1C1CCN(CC[C@@H](c2cc(F)cc(F)c2)C2CCN(S(C)(=O)=O)CC2)CC1` [Comparator Compound A, 1-{(3R)-3-(3,5-difluorophenyl)-3-[1-(methylsulfonyl)piperidin-4-yl]propyl}-4-[3-methyl-5-(trifluoromethyl)-4H-1,2,4-triazol-4-yl]piperidine], for which the results for the IC50 (at CCR5; in experiment [1]) were 39 nM and 68 nM, respectively.

Take `Cc1nnc(C(C)(F)F)n1C1CCN([C@H](C)C[C@@H](c2cc(F)cc(F)c2)C2CCN(S(C)(=O)=O)CC2)CC1` (single isomer, unassigned): the IC50 amounted to 3.4 nM on CCR5 and 2.1 nM in experiment [1].
